“And” between values parts separate entries of the source, which are not always exact repeats. Equal entries are not always repeated. Where two headings read alike, the source gives them in different places.
Key:
[1] = target: T1, dopamine transporters (DAT) (Homo sapiens, UniProt Q01959); assay: PET study of striatal DAT occupancy with 11C-PE2I in healthy male volunteers; type: in vivo
T1 construct: evaluate in healthy male volunteers with respect to safety, tolerability and pharmacokinetics as well as DAT and SERT occupancy; from tissue; host or cells: living human brain (striatum), PET in healthy male volunteers
Excerpt: The PET study was a part of a strategy in previous clinical development of the compound of formula I to evaluate in healthy male volunteers with respect to safety, tolerability and pharmacokinetics as well as DAT and SERT occupancy. […]
(§1) Striatal receptor occupancy at dopamine transporters (DAT) and serotonin transporters (SERT) with plasma concentrations of Formula I at the midpoint time of the post dosing PET (positron emission tomography) scans (T=4 and 24) after once-a-day multiple doses of 3-60 mg and 10-60 mg for SERT and DAT healthy male cohorts, respectively (Tables below, RO stands for receptor occupancy). Post dosing PET scans were conducted at day 10 (4 h post last dose) and day 14 (24 h post last dose) assuming steady state conditions, using the specific DAT and SERT tracers ^11C-PE2I and ^11C-MADAM, respectively. For 45 mg and 60 mg cohorts, there was titration by administration of 30 mg for 3 days and then from day 4 the specified dose. Representative reports on using these two tracers are Leamed-Coughlin S M et al, Biol Psychiatry. 2003, 54(8):800-5; Jucaite A et al, Eur J Nucl Med Mol Imaging. 2006, 33(6):657-68; and Lundberg J et al, Int J Neuropsychopharmacol. 2007, 10(6):777-85.

[2] = 14-day once-a-day oral multiple ascending dose PK study, day-14 data; type: in vivo, human; conditions: for Cmax: read-out: Formula I plasma concentration (Cmax); for concentration at 0 h: day 14, blood draw at 0 h (pre-dose trough)
Protocol: (§2) A LC-MS/MS method was developed and validated for the quantitation of Formula I in 0.250 mL of human EDTA plasma in a total of 7 runs, out of which 1 run was rejected. The method utilized stable labeled Formula I as an internal standard. After the addition of the internal standard (equivalent to 285.4 ng/mL in human EDTA plasma) and 0.250 mL of each quality control (QC) sample and calibration standard, 0.525 mL of methyl t-butyl ether (MTBE) was added to the 96-well sample tubes. The organic layer was removed and evaporated to dryness using a liquid-liquid extraction (LLE). The residue was reconstituted and injected into the LC-MS/MS system. Chromatographic separation was achieved through gradient elution on an Acquity UPLC, BEH Shield RP18™, 50×2.1 mm, 1.7 μm particle size column. The mobile phase contained water, acetonitrile, ammonium formate, and formic acid. Detection was accomplished using a Sciex API 4000 tandem mass spectrometer in positive ion electrospray SRM mode. The standard curves, which ranged from 1.00 to 1000 ng/mL for Formula I, were fitted to a 1/×2 weighted linear regression model. The intra-assay precisions, based on four levels of analytical QCs (low, mid, GM, and high), were within 4.2% CV and inter-assay precisions were within 7.2% CV for the analyte. The assay accuracy, expressed as % DEV, was within 6.4% of the nominal concentration values for the analyte. […] The LLOQ response ratio, when compared to the QCO response ratio, was >, 5 in all matrix lots. The analyte was stable in human EDTA plasma for at least 24 h at room temperature, for at least 14 days at −20° C., and following at least 3 freeze-thaw cycles. The processed samples were stable for 72 hours (h) at room temperature.
Tabulated, day-14 PK data (Cmax, Ctrough and AUC) for healthy humans in a 14-day, once-a-day oral dosing, multiple ascending dose study of compound of Formula I.

[3] = target: T2, serotonin transporters (SERT) (Homo sapiens, UniProt P31645); assay: PET study of SERT occupancy with 11C-MADAM in healthy male volunteers; type: in vivo; conditions: read-out: SERT RO %; for receptor occupancy at 10 mg: 10 mg once a day; for receptor occupancy at 30 mg: 30 mg once a day; for receptor occupancy at 45 mg: 45 mg once a day (30 mg for 3 days first); for receptor occupancy at 60 mg: 60 mg once a day (30 mg for 3 days first)
T2 construct: evaluate in healthy male volunteers with respect to safety, tolerability and pharmacokinetics as well as DAT and SERT occupancy; from tissue; host or cells: living human brain (striatum, thalamus), PET in healthy male volunteers
Excerpt: The PET study was a part of a strategy in previous clinical development of the compound of formula I to evaluate in healthy male volunteers with respect to safety, tolerability and pharmacokinetics as well as DAT and SERT occupancy.
The relationship between plasma the compound of formula I concentration and SERT occupancies, using the individual values, is presented in FIG. 8 and FIG. 9. The numeric values for the individual SERT and […] occupancy and the corresponding plasma concentrations are tabulated in Example 12.
as §1

[4] = target: Transporter, Norepinephrine (NET) (Homo sapiens, UniProt P23975); assay: NET radioligand binding ([125I] RTI-55), Eurofins; conditions: read-out: NET, % inhibition, 10 nM compound
Protocol: Source: Human recombinant MDCK cells;
Incubation Time/Temp: 3 hours @ 4° C.;
Incubation Buffer: 50 mM Tris-HCl, pH 7.4, 100 mM NaCl, 1 μM Leupeptin, 10 μM PMSF;
Non-Specific Ligand: 10.0 μM Desipramine;
Quantitation Method: Radioligand Binding;

[5] = Stability of Formula I in human EDTA plasma (LC-MS/MS validation); type: in vitro ADME
Protocol: as §2

[6] = Plasma concentration of Formula I at midpoint time of post dosing PET scans; type: in vivo; conditions: male, human; for concentration at 24 h: day 14, 24 h post last dose
Excerpt: In alternative embodiments, provided are methods comprising administering a drug in an amount sufficient to achieve a therapeutic level range of plasma concentration (optionally human plasma concentration) at a steady state, and this example describes an exemplary analytical method to determine the concentration of Formula I in human plasma using an LC-MS-MS method known to the people skilled in the art, and an exemplary bioanalysis method to determine the concentration of formula I in human EDTA plasma.
as §2, §1

[7] = 24 h, day 14, 24 h post last dose

T2 sequence (P31645 whole entry): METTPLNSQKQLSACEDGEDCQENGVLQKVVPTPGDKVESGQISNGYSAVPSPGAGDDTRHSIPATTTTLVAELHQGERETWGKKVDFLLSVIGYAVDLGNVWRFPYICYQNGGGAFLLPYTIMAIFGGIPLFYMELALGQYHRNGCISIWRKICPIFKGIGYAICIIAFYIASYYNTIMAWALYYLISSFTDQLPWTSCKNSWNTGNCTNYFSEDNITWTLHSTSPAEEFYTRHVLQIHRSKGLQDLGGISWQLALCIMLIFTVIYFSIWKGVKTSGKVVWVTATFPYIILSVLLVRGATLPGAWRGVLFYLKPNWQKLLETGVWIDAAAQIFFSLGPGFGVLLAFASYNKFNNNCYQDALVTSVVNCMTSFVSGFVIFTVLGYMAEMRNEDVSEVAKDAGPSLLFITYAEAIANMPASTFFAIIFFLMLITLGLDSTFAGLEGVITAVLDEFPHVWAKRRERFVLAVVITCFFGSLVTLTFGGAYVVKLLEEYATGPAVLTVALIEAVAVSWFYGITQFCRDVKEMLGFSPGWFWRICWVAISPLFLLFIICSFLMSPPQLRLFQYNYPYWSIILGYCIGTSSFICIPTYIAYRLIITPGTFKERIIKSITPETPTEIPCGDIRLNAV
T1 sequence (Q01959 whole entry): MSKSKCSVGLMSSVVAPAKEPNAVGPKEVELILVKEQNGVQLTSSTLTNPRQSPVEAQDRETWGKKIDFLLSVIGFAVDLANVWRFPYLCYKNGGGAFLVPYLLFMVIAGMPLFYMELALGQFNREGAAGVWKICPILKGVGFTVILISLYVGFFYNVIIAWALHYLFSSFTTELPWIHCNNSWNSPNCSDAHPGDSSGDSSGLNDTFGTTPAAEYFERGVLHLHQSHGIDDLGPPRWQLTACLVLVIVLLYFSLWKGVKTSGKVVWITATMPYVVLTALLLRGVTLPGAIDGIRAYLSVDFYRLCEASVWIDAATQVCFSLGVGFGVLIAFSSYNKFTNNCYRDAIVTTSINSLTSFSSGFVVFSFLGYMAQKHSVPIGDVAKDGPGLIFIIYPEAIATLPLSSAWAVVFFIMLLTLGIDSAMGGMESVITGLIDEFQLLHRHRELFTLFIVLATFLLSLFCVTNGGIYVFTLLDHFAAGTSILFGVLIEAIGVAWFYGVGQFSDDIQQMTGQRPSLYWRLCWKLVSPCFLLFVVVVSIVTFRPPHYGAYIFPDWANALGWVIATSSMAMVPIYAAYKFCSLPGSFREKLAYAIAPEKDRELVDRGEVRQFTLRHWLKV
Chain of Transporter, Norepinephrine (NET) (P23975 whole entry): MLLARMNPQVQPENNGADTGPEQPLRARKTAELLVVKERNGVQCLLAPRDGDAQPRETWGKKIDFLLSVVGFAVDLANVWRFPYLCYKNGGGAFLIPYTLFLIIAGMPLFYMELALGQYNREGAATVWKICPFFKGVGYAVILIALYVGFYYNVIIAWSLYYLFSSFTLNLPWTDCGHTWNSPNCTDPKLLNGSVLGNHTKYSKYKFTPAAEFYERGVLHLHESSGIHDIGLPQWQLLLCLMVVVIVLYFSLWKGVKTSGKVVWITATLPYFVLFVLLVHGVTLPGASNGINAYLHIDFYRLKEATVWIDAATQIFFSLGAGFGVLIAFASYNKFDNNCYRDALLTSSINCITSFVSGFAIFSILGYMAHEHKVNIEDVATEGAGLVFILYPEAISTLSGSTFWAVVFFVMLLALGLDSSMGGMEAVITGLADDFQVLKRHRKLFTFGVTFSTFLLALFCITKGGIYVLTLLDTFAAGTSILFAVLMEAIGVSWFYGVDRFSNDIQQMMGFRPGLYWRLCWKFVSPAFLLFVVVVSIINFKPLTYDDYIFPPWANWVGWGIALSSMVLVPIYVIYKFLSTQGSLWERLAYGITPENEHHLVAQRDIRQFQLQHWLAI

## Clc1ccc(C2CNCc3cc(-c4ccc5ncnn5c4)ccc32)cc1Cl (stereo not shown) [Formula I, 7-([1,2,4]triazolo[1,5-a]pyridin-6-yl)-4-(3,4-dichlorophenyl)-1,2,3,4-tetrahydroisoquinoline]
[1]; 10 mg once a day, day 10, 4 h post dose
  DAT RO %: 12% and 21% and 18%
[1]; 30 mg once a day, day 10, 4 h post dose
  DAT RO %: 22% and 43% and 36%
[1]; 30 mg once a day, day 14, 24 h post last dose
  DAT RO %: 26% and 23% and 43%
[1]; 45 mg once a day (30 mg for 3 days first), day 10, 4 h post dose
  DAT RO %: 42% and 44% and 48%
[1]; 45 mg once a day (30 mg for 3 days first), day 14, 24 h post last dose
  DAT RO %: 36% and 41% and 43%
[1]; 60 mg once a day (30 mg for 3 days first), day 10 (subject 77: day 11), 4 h post dose
  DAT RO %: 60% and 59%
[1]; 60 mg once a day (30 mg for 3 days first), day 14, 24 h post last dose
  DAT RO %: 48% and 49%
[1]; following multiple doses of 60 mg
  DAT occupancy: up to 60%
[2]; 3 mg daily, male, day 14, draw at about 23-24 h (Ctrough)
  Formula I plasma concentration: 42 ng/mL
[2]; female, human, plasma, oral, 45 mg, 45 mg daily, day 14, draw flagged Cmax (1-3 h)
  Cmax: 1680 ng/mL
[2]; female, human, plasma, oral, 45 mg, 45 mg daily, female, read-out: Formula I plasma concentration
  concentration at 0 h: 997 ng/mL
[2]; female, human, plasma, oral, 45 mg, 45 mg daily, female, day 14, draw at about 24 h (Ctrough), read-out: Formula I plasma concentration
  concentration at 24 h: 901 ng/mL
[2]; female, human, plasma, oral, 45 mg, 45 mg daily, female, day 14, printed in the 24 h draw line
  AUC: 10100 ng·h/mL
[2]; male, human, plasma, oral, 3 mg, 3 mg daily, male, read-out: Formula I plasma concentration
  concentration at 0 h: 42 ng/mL
[2]; male, human, plasma, oral, 3 mg, 3 mg daily, male, day 14, draw flagged Cmax (1-3 h)
  Cmax: 66 ng/mL
[2]; male, human, plasma, oral, 3 mg, 3 mg daily, male, day 14, printed in the 23-24 h draw line
  AUC: 439 ng·h/mL
[2]; male, human, plasma, oral, 10 mg, 10 mg daily, day 14, draw flagged Cmax (1-3 h)
  Cmax: 218 ng/mL
[2]; male, human, plasma, oral, 10 mg, 10 mg daily, male, read-out: Formula I plasma concentration
  concentration at 0 h: 125 ng/mL
[2]; male, human, plasma, oral, 10 mg, 10 mg daily, male, day 14, printed in the 23-24 h draw line
  AUC: 1260 ng·h/mL
[2]; male, human, plasma, oral, 45 mg, 45 mg daily, day 14, draw flagged Cmax (1-2 h)
  Cmax: 1150 ng/mL
[2]; male, human, plasma, oral, 45 mg, 45 mg daily, male, read-out: Formula I plasma concentration
  concentration at 0 h: 635 ng/mL
[2]; male, human, plasma, oral, 45 mg, 45 mg daily, male, day 14, draw at 23 h (Ctrough), read-out: Formula I plasma concentration
  concentration at 23 h: 672 ng/mL
[2]; male, human, plasma, oral, 45 mg, 45 mg daily, male, day 14, printed in the 23 h draw line
  AUC: 6280 ng·h/mL
[3]; 4 h, day 10, 4 h post dose
  receptor occupancy at 10 mg: 53%
  receptor occupancy at 30 mg: 71%
  receptor occupancy at 45 mg: 73%
  receptor occupancy at 60 mg: 70%
[3]; [7]
  receptor occupancy at 10 mg: 47%
  receptor occupancy at 30 mg: 69%
  receptor occupancy at 45 mg: 73%
  receptor occupancy at 60 mg: 76%
[4]
  inhibition at 0.01 µM: 35%
[5]; freeze-thaw
  stable in human EDTA plasma: at least 3 freeze-thaw cycles
[5]; room temperature
  stable in human EDTA plasma: at least 24 h
[5]; −20° C.
  stable in human EDTA plasma: at least 14 days
[6]; 3 mg, SERT cohort, 3 mg once a day, day 10, 4 h post dose
  concentration at 4 h: 68 ng/mL
[6]; 3 mg, SERT cohort, 3 mg once a day
  concentration at 24 h: 52 ng/mL
[6]; 10 mg, DAT cohort, 10 mg once a day, day 10, 4 h post dose
  concentration at 4 h: 204 ng/mL
[6]; 10 mg, DAT cohort, 10 mg once a day
  concentration at 24 h: 141 ng/mL
[6]; 10 mg, SERT cohort, 10 mg once a day, day 10, 4 h post dose
  concentration at 4 h: 201 ng/mL
[6]; 10 mg, SERT cohort, 10 mg once a day
  concentration at 24 h: 127 ng/mL
[6]; 30 mg, SERT cohort, 30 mg once a day, day 10, 4 h post dose
  concentration at 4 h: 691 ng/mL
[6]; 30 mg, SERT cohort, 30 mg once a day
  concentration at 24 h: 668 ng/mL
[6]; 45 mg, DAT cohort, 45 mg once a day (30 mg for 3 days first), day 10, 4 h post dose
  concentration at 4 h: 809 ng/mL
[6]; 45 mg, DAT cohort, 45 mg once a day (30 mg for 3 days first)
  concentration at 24 h: 647 ng/mL
[6]; 45 mg, SERT cohort, 45 mg once a day (30 mg for 3 days first), day 10, 4 h post dose
  concentration at 4 h: 1160 ng/mL
[6]; 45 mg, SERT cohort, 45 mg once a day (30 mg for 3 days first)
  concentration at 24 h: 940 ng/mL
[6]; 60 mg, DAT cohort, 60 mg once a day (30 mg for 3 days first), day 10 (subject 77: day 11), 4 h post dose
  concentration at 4 h: 1340 ng/mL
[6]; 60 mg, DAT cohort, 60 mg once a day (30 mg for 3 days first)
  concentration at 24 h: 920 ng/mL

Reference: patent US20230002377A1, “THERAPEUTIC COMBINATIONS OF DRUGS AND METHODS OF USING THEM” (HARMONY BIOSCIENCES, LLC, priority 2020, published 2023)
